Measured values from ChEMBL document CHEMBL4359824, “Dual FLT3 inhibitors: Against the drug resistance of acute myeloid leukemia in recent decade” (Eur J Med Chem, 2019).
Each block holds one molecule with its values, some of them ahead of it.

Key:
[1] = biological target: T1, Receptor-type tyrosine-protein kinase FLT3 (Homo sapiens, UniProt P36888); assay: Inhibition of FLT3 (unknown origin) phosphorylation by [gamma-33P]-ATP assay
T1 sequence (P36888 whole entry): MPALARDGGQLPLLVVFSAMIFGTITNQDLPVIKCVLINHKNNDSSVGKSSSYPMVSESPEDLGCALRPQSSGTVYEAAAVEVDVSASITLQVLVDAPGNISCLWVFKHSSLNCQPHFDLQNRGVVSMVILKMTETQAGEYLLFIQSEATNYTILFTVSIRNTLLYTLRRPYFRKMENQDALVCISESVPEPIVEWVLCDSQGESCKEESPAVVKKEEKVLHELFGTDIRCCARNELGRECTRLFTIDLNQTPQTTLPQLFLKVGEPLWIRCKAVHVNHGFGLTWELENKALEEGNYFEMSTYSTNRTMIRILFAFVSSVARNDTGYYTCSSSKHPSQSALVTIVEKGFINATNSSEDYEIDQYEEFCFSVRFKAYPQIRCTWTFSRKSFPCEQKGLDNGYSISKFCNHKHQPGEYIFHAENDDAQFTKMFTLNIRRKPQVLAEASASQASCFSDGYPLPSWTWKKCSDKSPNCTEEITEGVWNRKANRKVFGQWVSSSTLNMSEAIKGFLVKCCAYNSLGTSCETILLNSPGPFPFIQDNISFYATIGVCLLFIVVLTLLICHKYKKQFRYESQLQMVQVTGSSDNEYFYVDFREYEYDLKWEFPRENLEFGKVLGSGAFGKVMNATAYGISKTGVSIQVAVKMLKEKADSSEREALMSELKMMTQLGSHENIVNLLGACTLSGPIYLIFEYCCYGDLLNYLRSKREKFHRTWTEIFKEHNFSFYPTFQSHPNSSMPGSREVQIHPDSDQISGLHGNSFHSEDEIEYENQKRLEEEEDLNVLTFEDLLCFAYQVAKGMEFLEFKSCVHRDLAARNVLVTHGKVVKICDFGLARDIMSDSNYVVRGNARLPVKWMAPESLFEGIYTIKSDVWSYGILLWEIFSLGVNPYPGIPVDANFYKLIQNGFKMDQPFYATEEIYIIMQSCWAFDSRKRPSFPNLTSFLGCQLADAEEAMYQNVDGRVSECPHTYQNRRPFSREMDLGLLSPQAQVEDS

[2] = Cytotoxicity against mouse BAF3(transformed) cells harboring D835G mutant by trypan blue dye exclusion method; format: functional, cell-based
[3] = Cytotoxicity against mouse Ba/F3 FLT3-D835Y cells by trypan blue dye exclusion method; format: functional, cell-based; conditions: BaF3
[4] = biological target: Dual specificity mitogen-activated protein kinase kinase 1 (Homo sapiens, UniProt Q02750); assay: Inhibition of MEK1 (unknown origin) phosphorylation by [gamma-33P]-ATP assay
MV4-11 [5] = assay: Antitumor activity against human MV4-11 cells xenografted in SCID/beige mouse assessed as tumor growth inhibition at 50 mg/kg administered daily relative to control; format: functional; conditions: read-out: TGI
MV4-11 [6] = assay: Antitumor activity against human MV4-11 cells xenografted in SCID/beige mouse assessed as tumor growth inhibition at 100 mg/kg administered daily relative to control; format: functional; conditions: read-out: TGI
MV4-11 [7] = assay: Antitumor activity against human MV4-11 cells xenografted in SCID/beige mouse assessed as tumor growth inhibition at 75 mg/kg administered daily relative to control; format: functional; conditions: read-out: TGI
[8] = biological target: T1, Receptor-type tyrosine-protein kinase FLT3; assay: Inhibition of wild type FLT3 (unknown origin) expressed in mouse BAF3 cells; format: cell-based
[9] = Oral bioavailability in dog; format: ADME, organism-based, Canis lupus familiaris; conditions: in vivo
[10] = Oral bioavailability in monkey; format: ADME, organism-based, Macaca mulatta; conditions: rhesus monkey, in vivo
MV4-11 [11] = assay: Cytotoxicity against human MV4-11 cells; format: functional, cell-based
MOLM-13 [12] = assay: Cytotoxicity against human MOLM13 cells; format: functional, cell-based
MOLM-14 = assay: Cytotoxicity against human MOLM14 cells; format: functional, cell-based
MV4-11 [13] = assay: Cytotoxicity against human MV4-11 cells expressing FLT3 ITD mutant; format: functional, cell-based
MOLM-13 [14] = assay: Cytotoxicity against human MOLM13 cells expressing FLT3 ITD mutant; format: functional, cell-based
[15] = biological target: Serine/threonine-protein kinase pim-2 (Homo sapiens, UniProt Q9P1W9); assay: Binding affinity to Pim-2 (unknown origin)
[16] = biological target: Serine/threonine-protein kinase pim-1 (Homo sapiens, UniProt P11309); assay: Binding affinity to Pim-1 (unknown origin)
[17] = biological target: Serine/threonine-protein kinase pim-3 (Homo sapiens, UniProt Q86V86); assay: Binding affinity to Pim-3 (unknown origin)
[18] = biological target: T1, Receptor-type tyrosine-protein kinase FLT3; assay: Binding affinity to FLT3 (unknown origin)
MV4-11 [19] = assay: Antiproliferative activity against human MV4-11 cells after 48 hrs by CellTiter-Glo assay; format: functional, cell-based; conditions: MV4-11, 48 h
MOLM-13 [20] = assay: Antiproliferative activity against human MOLM13 cells after 48 hrs by CellTiter-Glo assay; format: functional, cell-based; conditions: MOLM-13, 48 h

Sequence of Serine/threonine-protein kinase pim-2 (Q9P1W9 whole entry): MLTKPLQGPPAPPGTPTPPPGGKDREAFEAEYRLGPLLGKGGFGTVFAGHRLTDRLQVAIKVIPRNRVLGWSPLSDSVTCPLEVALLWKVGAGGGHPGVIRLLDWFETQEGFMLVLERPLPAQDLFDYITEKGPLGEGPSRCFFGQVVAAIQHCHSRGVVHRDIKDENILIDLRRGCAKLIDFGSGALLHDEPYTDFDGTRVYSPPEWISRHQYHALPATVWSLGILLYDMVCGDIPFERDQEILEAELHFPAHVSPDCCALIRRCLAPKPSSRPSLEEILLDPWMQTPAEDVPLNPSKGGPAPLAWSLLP
Sequence of Serine/threonine-protein kinase pim-1 (P11309 whole entry): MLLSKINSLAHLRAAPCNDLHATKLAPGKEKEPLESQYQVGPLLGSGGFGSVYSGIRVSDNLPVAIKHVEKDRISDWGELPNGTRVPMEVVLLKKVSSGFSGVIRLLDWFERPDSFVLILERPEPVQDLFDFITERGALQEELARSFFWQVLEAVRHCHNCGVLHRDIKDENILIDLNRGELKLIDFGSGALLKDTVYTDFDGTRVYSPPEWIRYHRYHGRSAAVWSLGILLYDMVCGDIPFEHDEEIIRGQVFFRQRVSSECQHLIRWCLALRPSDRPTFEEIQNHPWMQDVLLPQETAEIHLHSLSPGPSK
Sequence of Dual specificity mitogen-activated protein kinase kinase 1 (Q02750 whole entry): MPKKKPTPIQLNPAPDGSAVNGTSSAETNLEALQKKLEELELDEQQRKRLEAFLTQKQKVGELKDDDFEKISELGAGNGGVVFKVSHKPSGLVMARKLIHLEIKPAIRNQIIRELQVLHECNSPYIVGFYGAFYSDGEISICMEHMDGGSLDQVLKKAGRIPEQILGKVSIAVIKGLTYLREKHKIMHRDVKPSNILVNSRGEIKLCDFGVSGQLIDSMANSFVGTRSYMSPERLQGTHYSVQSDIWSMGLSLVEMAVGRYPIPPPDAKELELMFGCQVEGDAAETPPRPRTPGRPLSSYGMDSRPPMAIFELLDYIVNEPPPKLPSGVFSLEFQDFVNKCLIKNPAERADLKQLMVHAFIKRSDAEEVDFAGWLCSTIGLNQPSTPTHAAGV

SMILES: CCNc1cc(O)c2c(c1)/C=C/C[C@H](O)[C@H](O)C(=O)/C=C\[C@@H](C)[C@H](C)OC2=O [E-6201]
IC50 [1]: 5 nM
IC50 [2]: 4600 nM
IC50 [3]: 26000 nM
IC50 [4]: 50 nM

SMILES: CC(C)n1c(C2CCNCC2)nc2c([N+](=O)[O-])c(Br)c(Br)cc21 [DAPOLSERTIB]
inhibition in vivo at 50 mg/kg (MV4-11 [5]): 67%
inhibition in vivo at 100 mg/kg (MV4-11 [6]): 82%
inhibition in vivo at 75 mg/kg (MV4-11 [7]): 74%

IC50 [8]: 618 nM
SMILES: COc1cccc2nc(-c3cccs3)nc(NN3C(=O)C=C(C)C3=O)c12 [AS-602868]

bioavailability [9]: 50%
bioavailability [10]: 100%
SMILES: COc1cc2c(N3CCN(C(=O)Nc4ccc(OC(C)C)cc4)CC3)ncnc2cc1OCCCN1CCCCC1 [TANDUTINIB]

SMILES: Cc1n[nH]c2ccc(-c3cncc(OC[C@@H](N)Cc4ccccc4)c3)cc12
EC50 (MV4-11 [11]): 92 nM
EC50 (MOLM-13 [12]): 170 nM
EC50 (MOLM-14): 60 nM

SMILES: CC1(COc2ccc3c(c2)ncn3-c2ccc3cccc(N4CCC(N)CC4)c3n2)COC1 [CRENOLANIB]
IC50 (MV4-11 [13]): 1.5 nM
IC50 (MOLM-13 [14]): 4.9 nM

Kd [15]: 3.1 nM
Kd [16]: 2.9 nM
Kd [17]: 0.4 nM
Kd [18]: 3.2 nM
SMILES: C[C@]12O[C@H](C[C@H](O)[C@H]1O)n1c3ccccc3c3c4c(c5c6ccccc6n2c5c31)C(=O)NC4=O

IC50 (MV4-11 [19]): 67 nM
IC50 (MOLM-13 [20]): 47 nM
SMILES: C1=N/C2=N/c3ccc(OCCN4CCCC4)c(c3)COC/C=C/COCc3cccc(c3)C(=C1)N2 [PACRITINIB]
